Measured values published in US6531435B1 (priority 2000, dated 2003).
Where two headings read alike, the source gives them in different places.

Key:
TSST-1 = type: cell-based, Staphylococcus aureus
S. aureus MN8 = type: cell-based, Staphylococcus aureus; conditions: 24 hours at 35° C.

Row | Substance | TSST-1 (TSST-1; 24 hours at 35° C.) | Final [S. aureus] (×10^9 CFU/ml) (S. aureus MN8) | TSST-1 (TSST-1)
1 | Laureth-4 | 531.8 ng/mL | 4.57 ×10^9 CFU/ml | 
2 | PPG-5 Laureth-5 |  | 3.82 ×10^9 CFU/ml | 609.2 ng/mL
3 | Steareth-2 | 680.7 ng/mL | 5.76 ×10^9 CFU/ml | 
